This assay deals with BDF1 mice, P388 leukemia ip, median survival T/C. As to the kind of experiment: NCI In Vivo Anticancer Drug Screen. Data for tumor model P388 Leukemia (intraperitoneal) in B6D2F1 (BDF1) mice. The note with it: endpoint: median survival time, higher = longer survival. An outline of the steps:
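Antitumour effect was judged in vivo: survival in drug-treated mice, normalised to that of vehicle-dosed controls, gives the reported T/C.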

[1] abbreviates: dose: 10.0 mg/kg/injection, schedule: Q01DX009 (ip), vehicle: saline.
Where [2] appears, read: dose: 20.0 mg/kg/injection, schedule: Q01DX009 (ip), vehicle: saline.
Where [3] appears, read: dose: 50.0 mg/kg/injection, schedule: Q04DX003 (ip), vehicle: saline.
The mark [4] stands for this setting: dose: 100.0 mg/kg/injection, schedule: Q04DX003 (ip), vehicle: saline.
The mark [5] stands for this setting: dose: 100.0 mg/kg/injection, schedule: Q01DX009 (ip), vehicle: Klucel (hydroxypropylcellulose) (HPC).
Where [6] appears, read: dose: 200.0 mg/kg/injection, schedule: Q01DX009 (ip), vehicle: Klucel (hydroxypropylcellulose) (HPC).
The mark [7] stands for this setting: dose: 400.0 mg/kg/injection, schedule: Q01DX009 (ip), vehicle: Klucel (hydroxypropylcellulose) (HPC).
The mark [8] stands for this setting: dose: 400.0 mg/kg/injection, schedule: Q04DX003 (ip), vehicle: Klucel (hydroxypropylcellulose) (HPC).
[9] abbreviates: dose: 25.0 mg/kg/injection, schedule: Q01DX009 (ip), vehicle: saline with Tween-80.

These results are taken from PubChem BioAssay AID328 (DTP/NCI, 2004).

Where “and” joins values, the source holds several entries; their conditions need not be identical. Identical values can stand only once. Inconclusive results and toxic doses are left out.

Consider `CC[n+]1ccc(Nc2ccc(NC(=O)c3ccc(C(=O)Nc4ccc(Nc5cc[n+](CC)c(N)n5)cc4)cc3)cc2)nc1N`, for which the T/C reads like this: (dose: 0.12 mg/kg/injection, schedule: Q01DX009 (ip), vehicle: saline) 150 % of control; (dose: 0.25 mg/kg/injection, schedule: Q01DX009 (ip), vehicle: saline) 150 % of control; (dose: 0.25 mg/kg/injection, schedule: Q04DX003 (ip), vehicle: Klucel (hydroxypropylcellulose) (HPC)) 100 % of control; (dose: 0.5 mg/kg/injection, schedule: Q01DX009 (ip), vehicle: saline) 155 % of control; (dose: 0.5 mg/kg/injection, schedule: Q04DX003 (ip), vehicle: Klucel (hydroxypropylcellulose) (HPC)) 95 % of control; (dose: 1.0 mg/kg/injection, schedule: Q04DX003 (ip), vehicle: Klucel (hydroxypropylcellulose) (HPC)) 109 % of control. Also, the T/C reads like this: (dose: 1.65 mg/kg/injection, schedule: Q01DX009 (ip), vehicle: saline) 160 % of control; (dose: 2.5 mg/kg/injection, schedule: Q01DX009 (ip), vehicle: saline) 175 % of control and 177 % of control; (dose: 3.75 mg/kg/injection, schedule: Q01DX009 (ip), vehicle: saline) 170 % of control; (dose: 5.0 mg/kg/injection, schedule: Q04DX003 (ip), vehicle: saline) 177 % of control; under setting [1], 190 % of control; under setting [2], 300 % of control. Moreover, the T/C is 195 % of control (dose: 30.0 mg/kg/injection, schedule: Q04DX003 (ip), vehicle: saline); 200 % of control (dose: 45.0 mg/kg/injection, schedule: Q04DX003 (ip), vehicle: saline); 200 % of control under setting [3]; 216 % of control (dose: 65.0 mg/kg/injection, schedule: Q04DX003 (ip), vehicle: saline); 109 % of control (dose: 80.0 mg/kg/injection, schedule: Q01DX009 (ip), vehicle: saline); 250 % of control and 263 % of control under setting [4]. The T/C runs as follows: (dose: 150.0 mg/kg/injection, schedule: Q04DX003 (ip), vehicle: saline) 104 % of control; (dose: 2.5 micrograms/kg/injection, schedule: Q01DX009 (ip), vehicle: saline) 90 % of control; (dose: 5.0 micrograms/kg/injection, schedule: Q01DX009 (ip), vehicle: saline) 95 % of control; (dose: 10.0 micrograms/kg/injection, schedule: Q01DX009 (ip), vehicle: saline) 100 % of control.
In the case of `O=C(CCCCC(=O)Nc1ccc(C2=NCCN2)cc1)Nc1ccc(C2=NCCN2)cc1`, the T/C (dose: 3.6 mg/kg/injection, schedule: Q01DX009 (ip), vehicle: Klucel (hydroxypropylcellulose) (HPC)) is 104 % of control; the T/C (dose: 5.4 mg/kg/injection, schedule: Q01DX009 (ip), vehicle: Klucel (hydroxypropylcellulose) (HPC)) was 100 % of control; the T/C (dose: 65.0 mg/kg/injection, schedule: Q01DX009 (ip), vehicle: Klucel (hydroxypropylcellulose) (HPC)) was 168 % of control; the T/C under setting [5] is 190 % of control; the T/C (dose: 100.0 mg/kg/injection, schedule: Q04DX003 (ip), vehicle: other) is 111 % of control; the T/C (dose: 132.0 mg/kg/injection, schedule: Q01DX009 (ip), vehicle: Klucel (hydroxypropylcellulose) (HPC)) is 204 % of control. Also, the T/C by setting is: under setting [6], 225 % of control and 172 % of control and 209 % of control; (dose: 200.0 mg/kg/injection, schedule: Q04DX003 (ip), vehicle: other) 116 % of control; (dose: 264.0 mg/kg/injection, schedule: Q04DX003 (ip), vehicle: Klucel (hydroxypropylcellulose) (HPC)) 180 % of control; (dose: 300.0 mg/kg/injection, schedule: Q01DX009 (ip), vehicle: Klucel (hydroxypropylcellulose) (HPC)) 257 % of control and 213 % of control; under setting [7], 100 % of control; under setting [8], 225 % of control and 168 % of control. In addition, the T/C (dose: 400.0 mg/kg/injection, schedule: Q04DX003 (ip), vehicle: other) was 161 % of control.
With `C=C(C)[C@H]1Cc2c(ccc3c2O[C@@H]2COc4cc(OC)c(OC)cc4[C@@H]2C3=O)O1`, the T/C is 109 % of control (dose: 4.0 mg/kg/injection, schedule: Q01DX010 (ip), vehicle: saline); 95 % of control under setting [1]; 155 % of control under setting [2]; 120 % of control (dose: 40.0 mg/kg/injection, schedule: Q01DX009 (ip), vehicle: saline).
Turning to `O=c1ccc2c([nH]1)CCC2`, the T/C by setting is: under setting [9], 86 % of control; (dose: 25.0 mg/kg/injection, schedule: Q04DX003 (ip), vehicle: saline) 100 % of control; (dose: 50.0 mg/kg/injection, schedule: Q01DX009 (ip), vehicle: saline with Tween-80) 90 % of control; under setting [3], 95 % of control; (dose: 100.0 mg/kg/injection, schedule: Q01DX009 (ip), vehicle: saline with Tween-80) 95 % of control; under setting [4], 100 % of control.
Regarding `CC(=O)Oc1c(Cl)c(Cl)c(Cl)c(Cl)c1Cl`, the T/C (dose: 100.0 mg/kg/injection, schedule: Q01DX001 (ip), vehicle: saline with Tween-80) is 115 % of control; the T/C (dose: 200.0 mg/kg/injection, schedule: Q01DX001 (ip), vehicle: saline with Tween-80) is 95 % of control; the T/C (dose: 400.0 mg/kg/injection, schedule: Q01DX001 (ip), vehicle: saline with Tween-80) is 100 % of control.
`Cn1nnc(N/N=C/c2ccccc2)n1`: the T/C runs as follows: (dose: 3.12 mg/kg/injection, schedule: Q01DX009 (ip), vehicle: saline with Tween-80) 102 % of control; (dose: 4.0 mg/kg/injection, schedule: Q01DX009 (ip), vehicle: saline with Tween-80) 121 % of control; (dose: 6.25 mg/kg/injection, schedule: Q01DX009 (ip), vehicle: saline with Tween-80) 93 % of control; (dose: 6.25 mg/kg/injection, schedule: Q04DX003 (ip), vehicle: saline with Tween-80) 112 % of control; (dose: 8.0 mg/kg/injection, schedule: Q01DX009 (ip), vehicle: saline with Tween-80) 123 % of control; (dose: 12.0 mg/kg/injection, schedule: Q01DX009 (ip), vehicle: saline with Tween-80) 120 % of control. Moreover, the T/C (dose: 12.5 mg/kg/injection, schedule: Q01DX009 (ip), vehicle: saline with Tween-80) was 97 % of control and 107 % of control; the T/C (dose: 12.5 mg/kg/injection, schedule: Q04DX003 (ip), vehicle: saline with Tween-80) was 105 % of control; the T/C (dose: 16.0 mg/kg/injection, schedule: Q01DX009 (ip), vehicle: saline with Tween-80) is 98 % of control; the T/C (dose: 20.0 mg/kg/injection, schedule: Q01DX009 (ip), vehicle: saline with Tween-80) was 114 % of control; the T/C under setting [9] is 100 % of control and 107 % of control; the T/C (dose: 25.0 mg/kg/injection, schedule: Q04DX003 (ip), vehicle: saline with Tween-80) was 99 % of control and 100 % of control.
Take `NC(=O)NOCC(N)C(=O)O` (stereo unspecified): the T/C runs as follows: under setting [4], 104 % of control; (dose: 200.0 mg/kg/injection, schedule: Q04DX003 (ip), vehicle: saline) 100 % of control; (dose: 400.0 mg/kg/injection, schedule: Q04DX003 (ip), vehicle: saline) 104 % of control.
For the compound `CN=C1N[N+]2=CCCCC2S1` (stereo unspecified), the T/C reads like this: (dose: 60.0 mg/kg/injection, schedule: Q01DX009 (ip), vehicle: saline) 163 % of control; (dose: 120.0 mg/kg/injection, schedule: Q01DX009 (ip), vehicle: saline) 95 % of control.
As to `O=C1OC(c2ccc([N+](=O)[O-])cc2)Sc2ccccc21` (stereo unspecified), the T/C was 86 % of control (dose: 50.0 mg/kg/injection, schedule: Q01DX009 (ip), vehicle: Klucel (hydroxypropylcellulose) (HPC)); 100 % of control (dose: 100.0 mg/kg/injection, schedule: Q01DX001 (ip), vehicle: Klucel (hydroxypropylcellulose) (HPC)); 100 % of control (dose: 100.0 mg/kg/injection, schedule: Q04DX003 (ip), vehicle: Klucel (hydroxypropylcellulose) (HPC)); 100 % of control (dose: 200.0 mg/kg/injection, schedule: Q01DX001 (ip), vehicle: Klucel (hydroxypropylcellulose) (HPC)); 100 % of control under setting [6]; 104 % of control (dose: 200.0 mg/kg/injection, schedule: Q04DX003 (ip), vehicle: Klucel (hydroxypropylcellulose) (HPC)). In addition, the T/C is 100 % of control (dose: 400.0 mg/kg/injection, schedule: Q01DX001 (ip), vehicle: Klucel (hydroxypropylcellulose) (HPC)) and 109 % of control under setting [8].
Consider `O=C(O)c1ccc(NS(=O)(=O)Cc2ccccc2)cc1`, for which the T/C is, setting by setting: under setting [5], 123 % of control; under setting [6], 123 % of control; under setting [7], 123 % of control.
